Experimental data as given in ChEMBL document CHEMBL3393042, “Synthesis and photophysical characterization of quasi push-pull dicyanodibenzodioxins and their anti-tumor activity against glioma cell line C6” (Bioorg Med Chem Lett, 2015).
Calls of active or inactive are those of the source. The rule behind the calls is not given here.

test system: C6; test: Cytotoxicity against rat C6 cells assessed as cell viability at 2 to 50 uM after 24 hrs by MTT assay; type: functional, cell-based

Question: Which Activity does the source give for `N#Cc1cc2c(cc1C#N)Oc1cc([N+](=O)[O-])ccc1O2` here?
Answer: inactive

Question: With `N#Cc1cc2c(cc1C#N)Oc1ccccc1O2` as the compound, how does the Activity read?
Answer: Active

Question: Which Activity does the source give for `N#Cc1cc2c(cc1C#N)Oc1cc(Br)ccc1O2` here?
Answer: Active
